According to US4686308A, “Novel physiologically active substance MH435” (Microbial Chemistry Research Foundation, priority 1985, dated 1987):
Converted amounts (≈) assume the structure as drawn.

Assays:
IMC carcinoma cells = assay: Effects on cultured carcinoma cells: IMC carcinoma; type: cell-based; conditions: 72 h, 3 days, 37° C., cell count
Method: (§1) IC50 was measured by inoculating the respective cells in dished (3-5×10^4 cells/dish), incubating the cells for 1 day (at 37° C.; CO2 concentration, 5%), then adding the substance MH435-A, further incubating the resultant mixture for 3 days under the same conditions and finally counting the number of the cells.

A-431 cells = assay: Effects on cultured carcinoma cells: A-431; type: cell-based; conditions: Homo sapiens, 72 h, 3 days, 37° C., cell count
Method: as §1

S. aureus 209 P = assay: Antimicrobial activity, agar dilution method; type: cell-based; conditions: Staphylococcus aureus, Muller-Hinton agar dilution
Text: (§2) Minimum inhibitory concentrations (MIC) of the substance against various bacteria determined by the agar dilution method using Muller-Hinton culture medium are shown in the following Table 4.

B. cereus ATCC 10702 = assay: Antimicrobial activity, agar dilution method; type: cell-based; conditions: Bacillus cereus, ATCC10702, Muller-Hinton agar dilution
Text: as §2

S. aureus MS8710 = assay: Antimicrobial activity, agar dilution method; type: cell-based; conditions: Staphylococcus aureus, Muller-Hinton agar dilution
Text: as §2

Sal. typhi T-63 = assay: Antimicrobial activity, agar dilution method; type: cell-based; conditions: Salmonella enterica
Text: as §2

Prot. vulgaris OX19 = assay: Antimicrobial activity, agar dilution method; type: cell-based; conditions: Proteus vulgaris, Muller-Hinton agar dilution
Text: as §2

B. Subtilis PCI 219 = assay: Antimicrobial activity, agar dilution method; type: cell-based; conditions: Bacillus subtilis, Muller-Hinton agar dilution
Text: as §2

M. lysodelkticus IFO 333 = assay: Antimicrobial activity, agar dilution method; type: cell-based; conditions: Muller-Hinton agar dilution
Text: as §2

Coryn. bovis 1810 = assay: Antimicrobial activity, agar dilution method; type: cell-based; conditions: Corynebacterium bovis, Muller-Hinton agar dilution
Text: as §2

K. pneumoniae PCI 602 = assay: Antimicrobial activity, agar dilution method; type: cell-based; conditions: Klebsiella pneumoniae, PCI602, Muller-Hinton agar dilution
Text: as §2

Pseu. aeruginosa A3 = assay: Antimicrobial activity, agar dilution method; type: cell-based; conditions: Pseudomonas aeruginosa, Muller-Hinton agar dilution
Text: as §2

S. aureus Smith = assay: Antimicrobial activity, agar dilution method; type: cell-based; conditions: Staphylococcus aureus, Muller-Hinton agar dilution
Text: as §2

E. coli NIHJ = assay: Antimicrobial activity, agar dilution method; type: cell-based; conditions: Escherichia coli, Muller-Hinton agar dilution
Text: as §2

Serr. marcessens = assay: Antimicrobial activity, agar dilution method; type: cell-based; conditions: Muller-Hinton agar dilution
Text: as §2

S. aureus MS9610 = assay: Antimicrobial activity, agar dilution method; type: cell-based; conditions: Staphylococcus aureus, Muller-Hinton agar dilution
Text: as §2

L1210 leukemia cells = assay: Effects on cultured carcinoma cells: L1210; type: cell-based; conditions: Mus musculus, 72 h, 3 days, 37° C., cell count
Method: as §1

Ki-NRK cells = assay: Effects on cultured carcinoma cells: Ki-NRK; type: cell-based; conditions: 72 h, 3 days, 37° C., cell count
Method: as §1

[1] = system: ts Src-NRK (at 33° C.) carcinoma form; assay: Effects on cultured carcinoma cells: ts Src-NRK (at 33° C.) carcinoma form; type: cell-based; conditions: 72 h, 3 days, cell count
[2] = system: ts Src-NRK (at 39° C.) normal form; assay: Effects on cultured carcinoma cells: ts Src-NRK (at 39° C.) normal form; type: cell-based; conditions: 72 h, 3 days, cell count
Acute toxicity (LD50) = conditions: mouse, in vivo, ip
[3] = biological target: T1, tyrosine specific protein kinase in the epidermal growth factor receptor (Homo sapiens, UniProt P00533); assay: Inhibitory activity against tyrosine specific protein kinase (epidermal growth factor receptor kinase), A-431 membrane fraction; type: biochemical; conditions: EGF, 0° C., 30 min, read-out: 50% inhibitory concentration (tyrosine specific protein kinase) (converted)
T1 construct: membrane fraction of human epithelial carcinoma cells A-431; endogenous in cells; host or cells: A-431 human epithelial carcinoma cells, membrane fraction
Method: In the above processes of incubation and purification, MH435 was traced by detecting the inhibition activity thereof by measuring the tyrosine specific protein kinase in test samples in accordance with the following method.
[Measurement of tyrosine specific protein kinase activity]
The measurement of tyrosin specific protein kinase activity was carried out by modifying the method of measuring enzyme activity described by G. Carpenter et al. in The Journal of Biological Chemistry, 254, 4874-4891 (1979) using the membrane fraction of human epithelial carcinoma cells A-431 with respect to the tyrosine specific protein kinase in the epidermal growth factor receptor. […] Then, ^32 P adsorbed on the filter paper was measured by counting the radioactivity (a). At the same time, count (b) was measured for the reaction product which was obtained by the same reaction and treated in the same manner as above except that the test sample was excluded, while counts (a') and (b') were measured for the reaction products in which the membrane fractions were further excluded, respectively. The inhibitory ratio with respect to the epidermal growth factor receptor kinase was then calculated from the equation

T1 sequence (P00533 25-1210): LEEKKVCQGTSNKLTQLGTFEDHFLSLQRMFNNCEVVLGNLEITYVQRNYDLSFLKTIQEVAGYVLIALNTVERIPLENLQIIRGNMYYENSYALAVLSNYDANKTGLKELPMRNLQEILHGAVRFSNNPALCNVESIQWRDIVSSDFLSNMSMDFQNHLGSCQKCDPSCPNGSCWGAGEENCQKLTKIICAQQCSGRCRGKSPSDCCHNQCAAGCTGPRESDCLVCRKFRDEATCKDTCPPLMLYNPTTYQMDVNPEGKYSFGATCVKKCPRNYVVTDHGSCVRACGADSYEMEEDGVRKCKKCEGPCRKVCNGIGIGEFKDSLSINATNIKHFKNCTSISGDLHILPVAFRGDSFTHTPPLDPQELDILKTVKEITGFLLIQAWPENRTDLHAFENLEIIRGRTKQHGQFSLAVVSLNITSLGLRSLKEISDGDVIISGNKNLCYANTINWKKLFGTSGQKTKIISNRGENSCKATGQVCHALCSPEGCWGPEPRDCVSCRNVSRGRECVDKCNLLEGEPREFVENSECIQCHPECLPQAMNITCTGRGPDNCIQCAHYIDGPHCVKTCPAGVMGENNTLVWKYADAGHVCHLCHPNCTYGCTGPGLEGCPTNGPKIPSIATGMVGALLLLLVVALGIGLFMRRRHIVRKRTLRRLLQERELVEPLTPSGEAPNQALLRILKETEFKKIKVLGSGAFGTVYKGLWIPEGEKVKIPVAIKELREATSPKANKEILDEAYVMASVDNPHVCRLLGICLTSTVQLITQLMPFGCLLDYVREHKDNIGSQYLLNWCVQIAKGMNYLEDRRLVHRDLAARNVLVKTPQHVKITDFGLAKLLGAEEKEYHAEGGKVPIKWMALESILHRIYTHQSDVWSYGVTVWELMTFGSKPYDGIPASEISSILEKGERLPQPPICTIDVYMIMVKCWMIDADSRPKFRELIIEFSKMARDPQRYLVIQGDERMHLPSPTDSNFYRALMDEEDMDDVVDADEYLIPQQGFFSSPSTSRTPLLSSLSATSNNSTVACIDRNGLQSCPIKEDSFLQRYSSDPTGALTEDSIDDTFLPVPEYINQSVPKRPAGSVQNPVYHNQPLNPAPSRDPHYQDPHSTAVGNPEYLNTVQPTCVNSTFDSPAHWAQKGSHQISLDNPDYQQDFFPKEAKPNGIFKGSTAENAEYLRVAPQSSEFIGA

Row | SMILES | MIC (S. aureus 209 P) | MIC (B. cereus ATCC 10702) | MIC (S. aureus MS8710) | MIC (Sal. typhi T-63) | MIC (Prot. vulgaris OX19) | MIC (B. Subtilis PCI 219) | MIC (M. lysodelkticus IFO 333) | MIC (Coryn. bovis 1810) | MIC (K. pneumoniae PCI 602) | MIC (Pseu. aeruginosa A3) | MIC (S. aureus Smith) | MIC (E. coli NIHJ) | MIC (Serr. marcessens) | MIC (S. aureus MS9610) | IC50 [3] | other results
1 | O=CNC=Cc1cc(O)ccc1O [MH435-A] | 50 µg/mL (≈ 279 µM) | 100 µg/mL (≈ 558 µM) | 50 µg/mL (≈ 279 µM) | 100 µg/mL (≈ 558 µM) | 100 µg/mL (≈ 558 µM) | 100 µg/mL (≈ 558 µM) | 50 µg/mL (≈ 279 µM) | 100 µg/mL (≈ 558 µM) | 100 µg/mL (≈ 558 µM) | 25 µg/mL (≈ 140 µM) | 25 µg/mL (≈ 140 µM) | 100 µg/mL (≈ 558 µM) | 100 µg/mL (≈ 558 µM) | 50 µg/mL (≈ 279 µM) | 3.07 µM | IC50 (IMC carcinoma cells): 3.01 µg/mL (≈ 16.8 µM); IC50 (A-431 cells): 3.6 µg/mL (≈ 20.1 µM); IC50 (L1210 leukemia cells): 2.41 µg/mL (≈ 13.5 µM); IC50 (Ki-NRK cells): 1.7 µg/mL (≈ 9.49 µM); IC50 [1]: 2 µg/mL (≈ 11.2 µM); IC50 [2]: 3.6 µg/mL (≈ 20.1 µM); LD50 (Acute toxicity (LD50)): ≥ 200 mg/kg
2 | O=CNCCc1cc(O)ccc1O [MH435-B] | 50 µg/mL (≈ 276 µM) | 100 µg/mL (≈ 552 µM) | 50 µg/mL (≈ 276 µM) | 100 µg/mL (≈ 552 µM) | 50 µg/mL (≈ 276 µM) | 100 µg/mL (≈ 552 µM) | 50 µg/mL (≈ 276 µM) | 100 µg/mL (≈ 552 µM) | 100 µg/mL (≈ 552 µM) | 50 µg/mL (≈ 276 µM) | 50 µg/mL (≈ 276 µM) | 100 µg/mL (≈ 552 µM) | 100 µg/mL (≈ 552 µM) | 50 µg/mL (≈ 276 µM) | 33.1 µM | –
